Reference: US11008346B2, “Beta-lactamase inhibitors” (priority 2014, dated 2021)
Read-outs that look alike come from different tables or passages of the source.

Experiments:
SHV-5 β-lactamase = molecular target: T1, SHV-5 β-lactamase (Klebsiella pneumoniae, UniProt P0A3M1); assay: β-lactamase enzyme inhibition, SHV-5; assay type: biochemical
T1 construct: made in house; host or cells: E. coli BL21(DE3)
In short: (§1)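 Absorbance-based kinetic read over 10 min after a 15 min, 37° C enzyme–inhibitor preincubation. Substrates differed by target: nitrocefin at 100 μM final (OXA-1, p99 AmpC; 486 nm), imipenem (KPC-2; 300 nm), cefotaxime (SHV-5; 260 nm). Percent inhibition per concentration gave the IC50.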

KPC-2 β-lactamase = molecular target: T2, KPC-2 β-lactamase (Klebsiella pneumoniae, UniProt Q9F663); assay: β-lactamase enzyme inhibition, KPC-2; assay type: biochemical
T2 construct: made in house; host or cells: E. coli BL21(DE3)
In short: as §1

[1] = molecular target: T3, VIM-2 metallo β-lactamase (Pseudomonas aeruginosa, UniProt Q9K2N0); assay: β-lactamase enzyme inhibition, VIM-2; assay type: biochemical; conditions: Nitrocefin 100 μM, 486 nm; 15 min at 37° C. preincubation; read-out: IC50 VIM-2 (Class B)
T3 construct: made in house; host or cells: E. coli BL21(DE3)
In short: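 Inhibitor and enzyme sat together 15 min at 37° C before 100 μM nitrocefin (final) was added and 486 nm absorbance read for 10 min. IC50 is the concentration halving initial hydrolysis rate relative to uninhibited wells. Protein came from Q sepharose anion exchange at pH 7.5, repeated to >90% purity.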

p99 AmpC β-lactamase = molecular target: T4, p99 AmpC β-lactamase (Enterobacter cloacae, UniProt P05364); assay: β-lactamase enzyme inhibition, p99 AmpC; assay type: biochemical
T4 construct: made in house; host or cells: E. coli BL21(DE3)
In short: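 Inhibitor and enzyme were incubated 15 min at 37°C first. The enzyme was recombinant p99 AmpC, untagged, from E. coli BL21(DE3), purified by ion-exchange and size-exclusion chromatography.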

OXA-1 β-lactamase = molecular target: T5, OXA-1 β-lactamase (Escherichia coli, UniProt P13661); assay: β-lactamase enzyme inhibition, OXA-1; assay type: biochemical; conditions: Nitrocefin 100 μM, 486 nm; 15 min at 37° C. preincubation; read-out: IC50 OXA-1 (Class D)
T5 construct: made in house; host or cells: E. coli BL21(DE3)
In short: as §1

[2] = test system: E. coli ESBL4 expressing CTX-M-15; assay: broth microdilution MIC, E. coli CTX-M-15; assay type: cell-based; conditions: Fixed CAZ (ceftazidime) 4 μg/mL
In short: (§2)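 Compounds were titrated in 2-fold steps from 32 to 0.25 μg/mL in cation-adjusted Mueller Hinton broth with a β-lactam held at 4 μg/mL. Plates were inoculated by CLSI broth microdilution with strains pre-grown 3–5 h. After 16–20 h at 37 °C, MIC was read visually.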

[3] = test system: E. cloacae 144200 expressing Class C P99 AmpC; assay: broth microdilution MIC, E. cloacae P99; assay type: cell-based; conditions: Fixed CAZ (ceftazidime) 4 μg/mL
In short: as §2

[4] = test system: K. pneumoniae 156319 expressing KPC-3; assay: broth microdilution MIC, K. pneumoniae KPC-3; assay type: cell-based; conditions: for MIC of exemplary compounds in presence of fixed β-lactams, K.P. 156319 KPC-3: Fixed Mero (meropenem) 4 μg/mL
In short: as §2

[5] = test system: P. aeruginosa Ps296 expressing VIM-2; assay: broth microdilution MIC, P. aeruginosa VIM-2; assay type: cell-based; conditions: for MIC of exemplary compounds in presence of fixed β-lactams, P. aerug. Ps296 VIM-2: Fixed Mero (meropenem) 4 μg/mL
From the text: (§3) To determine the ability of test compounds to potentiate the inhibition of the growth of bacterial strains that produce beta-lactamase enzymes, classic cell based broth microdilution MIC assays were employed. Six bacteria strains producing beta-lactamase enzymes were used: E. coli expressing the Class A Extended Spectrum Beta-Lactamase (ESBL) CTX-M-15, E. cloacae expressing the Class C P99, K. pneumoniae expressing the Class A carbapenemase KPC-3, P. aeruginosa expressing the Class B carbapenemase VIM-2, K pneumoniae expressing the class A carbapenemase KPC-2 and the class B carbapenemase VIM-4, and S. aureus producing the Class A penicillinase PC-1. The assay was conducted in Cation Adjusted Mueller Hinton Broth (CAMHB, BD #212322, BD Diagnostic Systems, Sparks, Md.). Bacteria strains were grown for 3-5 hours in CAMBH broth. Test compounds were added to a microtiter plate in 2-fold serial dilutions in CAMHB in a final concentration range of 32 μg/mL to 0.25 μg/ml. An overlay of CAMHB containing a Beta-lactam was added to the compounds at a final static concentration of 4 μg/ml. […] In addition to the titration of test compounds the MICs of a panel of control beta-lactams is also tested to ensure the strains are behaving consistently from test to test. Once the test compound and antibiotics are added the plates can be inoculated according to CLSI broth microdilution method. After inoculation the plates are incubated for 16-20 hours at 37° C., then the Minimal Inhibitory Concentration (MIC) of the test compound is determined visually.
(§4) Using the methodology described above, examples of the current invention were evaluated for their ability to inhibit the growth of β-lactamase-producing bacteria in the presence of a β-lactam antibiotic.
(§5) Representative results are shown in Table 4 where A represents an MIC of the fixed β-lactam antibiotic in the presence of >32 µg/mL of a β-lactamase inhibitor of exemplary compounds, B represents the MIC in the presence of between 8 and 32 µg/mL of a β-lactamase inhibitor of exemplary compounds, and C represents the MIC in the presence of ≤4 µg/mL of a β-lactamase inhibitor of exemplary compounds. NT=Not Tested.

[6] = test system: K. pneumoniae A-1797 expressing KPC-2 and VIM-4; assay: broth microdilution MIC, K. pneumoniae KPC-2 and VIM-4; assay type: cell-based; conditions: for MIC of exemplary compounds in presence of fixed β-lactams, K.P. A-1797 KPC-2 VIM-4: Fixed Mero (meropenem) 4 μg/mL
In short: as §2

[7] = test system: S. aureus MSSA-7 producing penicillinase PC-1; assay: broth microdilution MIC, S. aureus PC-1; assay type: cell-based; conditions: partner antibiotic alone, S. aureus producing PC-1
From the text: as §3, §4, §5

[8] = imipenem substrate, 300 nm, 15 min at 37° C. preincubation, read-out: IC50 KPC-2 (Class A)
[9] = Klebsiella pneumoniae, read-out: MIC alone

T2 sequence (Q9F663 25-293, looked up): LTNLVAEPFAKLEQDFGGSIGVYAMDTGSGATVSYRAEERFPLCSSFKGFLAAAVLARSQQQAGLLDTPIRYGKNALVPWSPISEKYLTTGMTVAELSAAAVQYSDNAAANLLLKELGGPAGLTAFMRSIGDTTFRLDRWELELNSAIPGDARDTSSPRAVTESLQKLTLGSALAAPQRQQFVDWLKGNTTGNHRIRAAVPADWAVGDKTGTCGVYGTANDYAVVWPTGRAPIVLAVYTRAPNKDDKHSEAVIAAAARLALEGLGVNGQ
T4 sequence (P05364 21-381): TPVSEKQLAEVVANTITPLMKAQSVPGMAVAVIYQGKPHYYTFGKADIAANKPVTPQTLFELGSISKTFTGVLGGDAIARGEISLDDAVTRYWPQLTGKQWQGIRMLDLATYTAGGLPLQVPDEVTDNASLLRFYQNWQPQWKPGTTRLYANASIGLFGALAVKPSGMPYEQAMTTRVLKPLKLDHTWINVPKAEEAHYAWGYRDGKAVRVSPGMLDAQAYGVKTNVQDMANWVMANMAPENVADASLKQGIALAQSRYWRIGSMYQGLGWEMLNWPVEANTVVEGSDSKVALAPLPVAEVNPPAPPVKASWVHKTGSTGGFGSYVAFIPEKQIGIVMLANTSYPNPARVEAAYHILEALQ
T1 sequence (P0A3M1 22-286): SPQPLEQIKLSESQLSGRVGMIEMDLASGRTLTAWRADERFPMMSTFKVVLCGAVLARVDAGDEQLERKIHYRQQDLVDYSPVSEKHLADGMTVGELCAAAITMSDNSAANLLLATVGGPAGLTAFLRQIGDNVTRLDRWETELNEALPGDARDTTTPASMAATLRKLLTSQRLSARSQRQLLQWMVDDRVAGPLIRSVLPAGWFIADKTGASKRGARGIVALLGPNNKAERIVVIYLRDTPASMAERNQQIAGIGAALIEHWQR
T5 sequence (P13661 26-276): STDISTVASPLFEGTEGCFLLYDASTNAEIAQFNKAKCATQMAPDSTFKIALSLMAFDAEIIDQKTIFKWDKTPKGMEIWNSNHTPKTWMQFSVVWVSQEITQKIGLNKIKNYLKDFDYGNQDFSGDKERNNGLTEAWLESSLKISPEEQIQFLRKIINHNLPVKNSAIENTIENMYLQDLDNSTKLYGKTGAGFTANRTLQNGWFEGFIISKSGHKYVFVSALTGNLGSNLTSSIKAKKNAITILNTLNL

| Structure (SMILES) | IC50 (SHV-5 β-lactamase) [nM] | IC50 (KPC-2 β-lactamase) [nM] | IC50 [1] [nM] | IC50 (p99 AmpC β-lactamase) [nM] | IC50 (OXA-1 β-lactamase) [nM] | MIC of exemplary compounds in presence of fixed β-lactams, E. coli ESBL4 CTX-M-15 [2] | MIC of exemplary compounds in presence of fixed β-lactams, E. cl. 144200 p99 AmpC [3] | MIC of exemplary compounds in presence of fixed β-lactams, K.P. 156319 KPC-3 [4] | MIC of exemplary compounds in presence of fixed β-lactams, P. aerug. Ps296 VIM-2 [5] | MIC of exemplary compounds in presence of fixed β-lactams, K.P. A-1797 KPC-2 VIM-4 [6] | IC50 (KPC-2 β-lactamase; [8]) [nM] | MIC [4, 9] [µg/mL] | MIC alone ([5]; partner antibiotic alone, P. aeruginosa expressing VIM-2) [µg/mL] | MIC [6, 9] [µg/mL] | MIC alone [7] [µg/mL] |
| --- | --- | --- | --- | --- | --- | --- | --- | --- | --- | --- | --- | --- | --- | --- | --- |
| O=C(CCC(F)(F)F)N[C@H]1Cc2cccc(C(=O)O)c2OB1O [Example 7, (R)-2-Hydroxy-3-(4,4,4-trifluoro-butyrylamino)-3,4-dihydro-2H-benzo[e][1,2]oxaborinine-8-carboxylic acid] | < 100 | < 100 | 1000 to 10000 | < 100 | < 100 | C (C represents the MIC in the presence of ≤4 g/mL of a β-lactamase inhibitor) | C (C represents the MIC in the presence of ≤4 g/mL of a β-lactamase inhibitor) | C (C represents the MIC in the presence of ≤4 g/mL of a β-lactamase inhibitor) | B (B represents the MIC in the presence of between 8 and 32 g/mL of a β-lactamase inhibitor) | A (A represents an MIC of the fixed β-lactam antibiotic in the presence of >32 g/mL of a β-lactamase inhibitor) |  |  |  |  |  |
| O=C(CC(C(F)(F)F)C(F)(F)F)N[C@H]1Cc2cccc(C(=O)O)c2OB1O [Example 9, (R)-2-Hydroxy-3-(4,4,4-trifluoro-3-trifluoromethyl-butyrylamino)-3,4-dihydro-2H-benzo[e][1,2]oxaborinine-8-carboxylicacid] | < 100 |  | 10000 to 100000 | < 100 | 100 to 1000 | B (B represents the MIC in the presence of between 8 and 32 g/mL of a β-lactamase inhibitor) | C (C represents the MIC in the presence of ≤4 g/mL of a β-lactamase inhibitor) | B (B represents the MIC in the presence of between 8 and 32 g/mL of a β-lactamase inhibitor) | A (A represents an MIC of the fixed β-lactam antibiotic in the presence of >32 g/mL of a β-lactamase inhibitor) | A (A represents an MIC of the fixed β-lactam antibiotic in the presence of >32 g/mL of a β-lactamase inhibitor) | 100 to 1000 |  |  |  |  |
| O=C(CCNS(=O)(=O)C(F)(F)F)N[C@H]1Cc2cccc(C(=O)O)c2OB1O [Example 52, (R)-2-Hydroxy-3-(3-trifluoromethanesulfonylamino-propionylamino)-3,4-dihydro-2H-benzo[e][1,2]oxaborinine-8-carboxylic acid] | < 100 |  | 1000 to 10000 | < 100 | < 100 | C (C represents the MIC in the presence of ≤4 g/mL of a β-lactamase inhibitor) | C (C represents the MIC in the presence of ≤4 g/mL of a β-lactamase inhibitor) | B (B represents the MIC in the presence of between 8 and 32 g/mL of a β-lactamase inhibitor) |  | B (B represents the MIC in the presence of between 8 and 32 g/mL of a β-lactamase inhibitor) | < 100 |  |  |  |  |
| C[C@@H](O)[C@H]1C(=O)N2C(C(=O)O)=C(S[C@@H]3CN[C@H](C(=O)N(C)C)C3)[C@H](C)[C@H]12 [Meropenem, meropenem, reference compound] |  |  |  |  |  |  |  |  |  |  |  | > 128 | 16 | 64 |  |
| CCN1CCN(C(=O)N[C@@H](C(=O)N[C@@H]2C(=O)N3[C@@H]2SC(C)(C)[C@@H]3C(=O)O)c2ccccc2)C(=O)C1=O [Piperacillin, piperacillin, reference compound] |  |  |  |  |  |  |  |  |  |  |  |  |  |  | 64 |
